The text below walks through data of patent publication US5219884A, “Immunosuppressant” (Taito Co., Ltd., priority 1990, dated 1993).

In brackets after ≈: the same amount, converted by molar mass. Read-outs that look alike come from different tables or passages of the source.

Experiment [1] relates to IL2-dependent mouse cell line CTLL-2. Kind of experiment: suppression of IL-2 induced 3H-thymidine incorporation of CTLL-2. In kind it is cell-based. To be noted: for inhibition at 0.1 µg/mL / inhibition at 1 µg/mL / inhibition at 0.01 µg/mL / inhibition at 10 µg/mL: Mus musculus; for inhibition at 0.1 µg/mL / inhibition at 0.01 µg/mL / inhibition at 10 µg/mL: read-out: Suppression. The protocol: IL2-dependent mouse cell line CTLL-2 cells were suspended in the RPMI1640 culture medium supplemented with 30% FCS to a concentration of 2×10^5 cells/ml. The suspension (50 μl) and 50 μl of concanavalin A-stimulated rat spleen cell culture supernatants containing IL2 were added to each well of 96-well microculture plates in which 100 μl of the test substance had been placed. After culturing at 37° C. in an atmosphere of 5% carbon dioxide for 20, 44, or 68 hours, 0.5 μCi/well of ^3 H-thymidine was added, and cultured for 4 hours under the same conditions. After termination of the culture, the cells were harvested by a cell harvester, and the radioactivity incorporated into the cells was measured by a liquid scintillation counter.
(In general: Incorporation of labelled thymidine or its analogues reports DNA synthesis.)

The test system of experiment [2] is human allogenic MLR (peripheral blood lymphocytes). Briefly: human allogenic MLR-suppressive activity. The class given is cell-based. Conditions: for inhibition at 0.0001 µg/mL / inhibition at 0.001 µg/mL / inhibition at 0.01 µg/mL / inhibition at 0.1 µg/mL / inhibition at 1 µg/mL / inhibition at 10 µg/mL / inhibition at 10 pg/mL: Homo sapiens, read-out: Suppression; for inhibition at 0.0001 µg/mL / inhibition at 0.001 µg/mL / inhibition at 0.01 µg/mL / inhibition at 0.1 µg/mL / inhibition at 1 µg/mL / inhibition at 10 µg/mL / inhibition at 10 pg/mL / IC50: Lymphocyte; for IC50: human allogenic MLR, read-out: 50%-inhibition concentration (IC50). The protocol: The human allogenic MLR-suppressive activity was assayed as follows:
Human peripheral blood lymphocytes obtained by Ficoll-Paque density gradient centrifugation of normal human peripheral blood were suspended in the RPMI1640 medium supplemented with 10% FCS, placed in plastic dishes, and incubated at 37° C. in an atmosphere of 5% carbon dioxide for 2 hours. After termination of incubation, the supernatant after gentle pipetting was harvested and centrifuged (1000 rpm, for 5 minutes) to obtain plastic-nonadherent cells. The plastic-nonadherent cells were allowed to pass through a nylon-wool column to give nylon-nonadherent cells, and the concentration of the cell suspension was adjusted to 4×10^6 cells/ml by using the RPMI1640 culture medium supplemented with 10% FCS, and used as the responder cell suspension.
The plastic-adherent cells were removed from the plastic dish by vigorous pipetting after addition of phosphate buffered saline supplemented with 5% FCS and 0.02% disodium ethylenediamine-tetraacetic acid (EDTA). The plastic-adherent cells were treated with 40 μg/ml of mitomycin C at 37° C. for 60 minutes, washed three times, and suspended to the concentration of 4×10^6 cells/ml in the RPMI1640 culture medium supplemented with 10% FCS. The resultant suspension was used as the stimulator cell suspension. Fifty μl of the responder cell suspension from the donor A or C was mixed with 50 μl of the stimulator cell suspension from the donor B or D, to which 100 μl of the test substance was added, and cultured at 37° C. in the an atmosphere 5% carbon dioxide for 5 days.
After termination of the culture, 1.0 μCi/well of ^3 H-thymidine was added, and after 18 hours of culture, the cells were harvested by a cell-harvester. The radioactivity incorporated into the cells was measured by a liquid scintillation counter as the index of blastogenic response of lymphocytes in human allogenic MLR. The suppression of human allogenic MLR was evaluated by calculating the percent suppression by the following formula. [formula]

The mark [3] stands for this setting: 72 hrs, second run (control 30168 cpm), 0.1 μg/ml.
[4] abbreviates: 72 hrs, second run (control 30168 cpm), 1 μg/ml.
Setting [5] is: CTLL-2, 72 hrs, second run (control 30168 cpm), 0.1 μg/ml.
The mark [6] stands for this setting: CTLL-2, 72 hrs, second run (control 30168 cpm), 1 μg/ml.

In the case of `CCCCCCC(=O)CCCCCC/C=C/CC1OC(=O)C(CO)(NC(C)=O)C1O` (stereo not shown) [Example 11], the 3H-thymidine uptake in experiment [1] (setting [3]) amounted to 33948 cpm; in experiment [1] (setting [4]) it was 4876 cpm. In addition, the inhibition at 0.1 µg/mL in experiment [1] (setting [5]) came out at 0%. This compound also registered an inhibition at 1 µg/mL in experiment [1] (setting [6]) of 84%.
Regarding `CCCCCCC(O)CCCCCC/C=C/CC(O)C(O)C(N)(CO)C(=O)O` (stereo not shown) [Example 6], the inhibition at 0.0001 µg/mL in experiment [2] (donor A/donor B, 0.0001 μg/ml) came to 45.2%; in experiment [2] (donor C/donor D, 0.0001 μg/ml), 14%. Further, the inhibition at 0.001 µg/mL turned out to be 56.2% in experiment [2] (donor A/donor B, 0.001 μg/ml) and 51.7% in experiment [2] (donor C/donor D, 0.001 μg/ml). For the same compound, the inhibition at 0.01 µg/mL in experiment [2] (donor A/donor B, 0.01 μg/ml) is 81.7%; in experiment [2] (donor C/donor D, 0.01 μg/ml), 77%. Further, the inhibition at 0.1 µg/mL in experiment [2] (donor A/donor B, 0.1 μg/ml) came to 81.3%; in experiment [2] (donor C/donor D, 0.1 μg/ml) it was 80.3%; in experiment [1] (setting [5]) it was 76.2%. In addition, the inhibition at 1 µg/mL in experiment [2] (donor A/donor B, 1 μg/ml) amounted to 83.9%; in experiment [2] (donor C/donor D, 1 μg/ml), 86.4%; in experiment [1] (setting [6]) it was 95.7%. In addition, in experiment [2] (donor A/donor B, 10 μg/ml), the inhibition at 10 µg/mL worked out at 90%. For the same compound, in experiment [2], the inhibition at 10 pg/mL was 6.8%. The IC50 in experiment [2] worked out at 0.22 ng/mL (≈ 0.545 nM). Further, the 3H-thymidine uptake in experiment [2] (donor A/donor B, 0.0001 μg/ml) turned out to be 14191 cpm; in experiment [2] (donor A/donor B, 0.001 μg/ml), 11753 cpm; in experiment [2] (donor A/donor B, 0.01 μg/ml), 6335 cpm; in experiment [2] (donor A/donor B, 0.1 μg/ml), 6418 cpm; in experiment [2] (donor A/donor B, 1 μg/ml), 5877 cpm; in experiment [2] (donor A/donor B, 10 μg/ml), 4564 cpm. The 3H-thymidine uptake in experiment [2] (donor C/donor D, 0.00001 μg/ml) was found to be 16241 cpm; in experiment [2] (donor C/donor D, 0.0001 μg/ml), 14996 cpm; in experiment [2] (donor C/donor D, 0.001 μg/ml), 8468 cpm; in experiment [2] (donor C/donor D, 0.01 μg/ml), 4082 cpm; in experiment [2] (donor C/donor D, 0.1 μg/ml), 3501 cpm; in experiment [2] (donor C/donor D, 1 μg/ml) it was 2448 cpm. The results for the 3H-thymidine uptake in experiment [1] (setting [3]) and in experiment [1] (setting [4]) were 7237 cpm and 1346 cpm, respectively.
As to `CCCCCCC(O)CCCCCCCCCC(O)C(O)C(N)(CO)C(=O)O` (stereo not shown) [Example 9], the values for the 3H-thymidine uptake in experiment [1] (setting [3]) and in experiment [1] (setting [4]) were 33835 cpm and 2247 cpm, respectively. Also, the inhibition at 0.1 µg/mL in experiment [1] (setting [5]) worked out at 0%. The compound further displayed an inhibition at 1 µg/mL in experiment [1] (setting [6]) of 92.7%.
`CCCCCCC(O)CCCCCCCCCC1OC(=O)C(N)(CO)C1O` (stereo not shown) [Example 10]: the values for the 3H-thymidine uptake in experiment [1] (setting [3]) and in experiment [1] (setting [4]) were 28083 cpm and 1844 cpm, respectively. The inhibition at 0.1 µg/mL in experiment [1] (setting [5]) was found to be 6.9%. Further, the inhibition at 1 µg/mL in experiment [1] (setting [6]) was determined as 94.1%.
In the case of `CCCCCCC(=O)CCCCCC/C=C/CC1OC(=O)C(N)(CO)C1O` (stereo not shown) [Example 4], the inhibition at 0.0001 µg/mL in experiment [2] (donor A/donor B, 0.0001 μg/ml) came to 32.3%; in experiment [2] (donor C/donor D, 0.0001 μg/ml) it was 61.9%. For the same compound, the inhibition at 0.001 µg/mL was 47.4% in experiment [2] (donor A/donor B, 0.001 μg/ml) and 58.5% in experiment [2] (donor C/donor D, 0.001 μg/ml). The inhibition at 0.01 µg/mL in experiment [2] (donor A/donor B, 0.01 μg/ml) came to 65.8%; in experiment [2] (donor C/donor D, 0.01 μg/ml) it was 80.8%; in experiment [1] (CTLL-2, 48 h), 13.3%; in experiment [1] (CTLL-2, 24 hrs, 0.01 μg/ml), 11.8%; in experiment [1] (CTLL-2, 72 hrs, 0.01 μg/ml, control 78515 cpm) it was 11.8%. Also, the inhibition at 0.1 µg/mL in experiment [2] (donor A/donor B, 0.1 μg/ml) stood at 89.2%; in experiment [2] (donor C/donor D, 0.1 μg/ml), 84.9%; in experiment [1] (CTLL-2, 24 hrs, 0.1 μg/ml) it was 37.5%; in experiment [1] (CTLL-2, 48 hrs, 0.1 μg/ml) it was 64.6%; in experiment [1] (CTLL-2, 72 hrs, 0.1 μg/ml, control 78515 cpm), 79.4%. Moreover, the inhibition at 1 µg/mL in experiment [2] (donor A/donor B, 1 μg/ml) stood at 83.5%; in experiment [2] (donor C/donor D, 1 μg/ml), 79.2%; in experiment [1] (CTLL-2, 24 hrs, 1 μg/ml) it was 19.6%; in experiment [1] (CTLL-2, 48 hrs, 1 μg/ml), 72.7%; in experiment [1] (CTLL-2, 72 hrs, 1 μg/ml, control 78515 cpm), 95.6%. Moreover, the inhibition at 10 µg/mL in experiment [2] (donor A/donor B, 10 μg/ml) came to 86.4%; in experiment [1] (CTLL-2, 24 hrs, 10 μg/ml), 62.7%; in experiment [1] (CTLL-2, 48 hrs, 10 μg/ml) it was 71.6%; in experiment [1] (CTLL-2, 72 hrs, 10 μg/ml, control 78515 cpm), 85.7%. Besides, the inhibition at 10 pg/mL in experiment [2] (donor C/donor D, 0.00001 μg/ml) is 55.8%. In addition, the IC50 in experiment [2] was 0.79 ng/mL (≈ 2.06 nM). For the same compound, the 3H-thymidine uptake in experiment [2] (donor A/donor B, 0.0001 μg/ml) was determined as 16963 cpm; in experiment [2] (donor A/donor B, 0.001 μg/ml), 13715 cpm; in experiment [2] (donor A/donor B, 0.01 μg/ml) it was 9754 cpm; in experiment [2] (donor A/donor B, 0.1 μg/ml), 4734 cpm; in experiment [2] (donor A/donor B, 1 μg/ml), 5954 cpm; in experiment [2] (donor A/donor B, 10 μg/ml), 5332 cpm. Further, the 3H-thymidine uptake in experiment [2] (donor C/donor D, 0.00001 μg/ml) worked out at 7746 cpm; in experiment [2] (donor C/donor D, 0.0001 μg/ml), 6700 cpm; in experiment [2] (donor C/donor D, 0.001 μg/ml), 7278 cpm; in experiment [2] (donor C/donor D, 0.01 μg/ml), 3417 cpm; in experiment [2] (donor C/donor D, 0.1 μg/ml) it was 2708 cpm; in experiment [2] (donor C/donor D, 1 μg/ml), 3703 cpm. For the same compound, the 3H-thymidine uptake in experiment [1] (24 hrs, 0.01 μg/ml) was 5907 cpm; in experiment [1] (24 hrs, 0.1 μg/ml), 4240 cpm; in experiment [1] (24 hrs, 1 μg/ml), 5400 cpm; in experiment [1] (24 hrs, 10 μg/ml), 2602 cpm; in experiment [1] (48 hrs, 0.01 μg/ml), 21930 cpm; in experiment [1] (48 hrs, 0.1 μg/ml), 9202 cpm. In addition, the 3H-thymidine uptake amounted to 7202 cpm in experiment [1] (48 hrs, 1 μg/ml); 7465 cpm in experiment [1] (48 hrs, 10 μg/ml); 69355 cpm in experiment [1] (72 hrs, 0.01 μg/ml, control 78515 cpm); 16705 cpm in experiment [1] (72 hrs, 0.1 μg/ml, control 78515 cpm); 4088 cpm in experiment [1] (72 hrs, 1 μg/ml, control 78515 cpm); 11806 cpm in experiment [1] (72 hrs, 10 μg/ml, control 78515 cpm).
With `CCCCCCC(=O)CCCCCCCCCC1OC(=O)C(N)(CO)C1O` (stereo not shown) [Example 7], the 3H-thymidine uptake in experiment [1] (setting [3]) was 37960 cpm; in experiment [1] (setting [4]) it was 2088 cpm. For the same compound, the inhibition at 0.1 µg/mL in experiment [1] (setting [5]) is 0%. In experiment [1] (setting [6]), the inhibition at 1 µg/mL amounted to 93.3%.
